Source: article PMC12323621, “Exploring the antimicrobial activity of pantothenamides against uropathogenic Escherichia coli” (Microbiology Spectrum, 2025)
Where two headings read alike, the source gives them in different places.

What was measured:
[1] = test system: UPEC strain CFT073; test: Antimicrobial susceptibility assay, UPEC grown in pooled human urine; assay type: cell-based, Escherichia coli
Excerpt: Unless otherwise noted, all reagents were obtained from commercial sources. BAP, 1, and N5-Pan analogs were synthesized according to previously reported procedures ([31], [53]). Urine was self-collected from adult males and females (not menstruating) between 24 and 57 years old (recruitment was open to donors 18–65 years old), who had not used anti-infectives or cranberry products for at least 7 days prior to collection. The collection protocol was approved by the Johns Hopkins University Institutional Review Boards under IRB study NA_00085130. Informed, written consent was obtained from all participants prior to collection. Urine was collected from at least 7 participants over 14 days, stored at 4°C upon collection, and then pooled, filter-sterilized, and frozen at −20°C. Urine Batch A included five male and three female donors with an average age of 33 years (range: 24–57). Urine Batch B included four male and five female donors with an average age of 26 years (range: 24–43). Samples from two donors (donations made at least 30 days apart) were included in both Batch A and Batch B. Urine Batch C included four male and three female donors with an average age of 27 years (range: 24–36). Urine Batch D included four male and three female donors with an average age of 27 years (range: 25–35). Solid urine agar plates were prepared by supplementing cooled 1.5% (wt/vol) agar with filter-sterilized urine in a 4:1 ratio. Liquid MOPS-glycerol was prepared by adding 10 × 3-(N-morpholino)propanesulfonic acid (MOPS) Buffer (Teknova) to water to a final 1× concentration, 1.32 mM K2HPO4, and 0.4% (vol/vol) glycerol and then filter-sterilizing. Unless otherwise noted, all media were supplemented with freshly prepared 20 µM FeSO4. OD600 analyses were performed on Mettler-Toledo UV5Bio UV/Visible spectrophotometer (Columbus, Ohio, USA). For antimicrobial studies, uropathogenic E. coli strain CFT073 (ATCC: BAA-2503) was provided by Kevin Schwartz from the lab of Rodney Welch. All manipulation of UPEC was conducted in a certified biosafety level 2 (BSL-2) laboratory while using BSL-2-associated safety procedures. Antimicrobial data were collected on a Biotek Epoch 2 microplate reader or a Biotek Synergy Neo 2 microplate reader. For metabolic stability studies, losartan potassium (PHR1602), used as an internal standard, was bought from Millipore Sigma (Burlington, MA). Methanol (A456-4) and acetonitrile (A955-4) were purchased from Fisher Chemical (Pittsburgh, PA). Water (9831-03) was purchased from JT Baker (Philipsburg, NJ). Dimethyl sulfoxide (DMSO)(154938-500mL) was purchased from Sigma Aldrich (St. Louis, MO). Mouse plasma (WT) was purchased from Innovative Research (Novi, MI). Mouse liver microsomes (M1000) were purchased from XenoTech LLC (Kansas City, KS).
All antimicrobial susceptibility assays were conducted as previously described using an aseptic technique with some modification ([7]). Briefly, 3–5 isolated colonies of CFT073 on LB agar or pooled urine agar were inoculated into 3 mL of liquid MOPS-glycerol medium or pooled urine, respectively, and grown overnight with shaking at 37°C. Saturated cultures were diluted 1:50 in fresh medium and grown to an OD600 of 0.4. These exponential phase cultures were then diluted 1:1,000 into fresh medium to yield the experimental inoculum, which was mixed 1:1 with medium containing 1 or N5-Pan analog at twice the desired final concentration in 96-well plates. The final concentration of bacteria in each well was approximately 10^5 CFU/mL in a final volume of 200 µL. The concentration ranges of compounds evaluated in MOPS-glycerol were: 1 (0–312.5 μM), 2 (0–100 μM), 3 (0–500 μM), 4–5 (0–2,000 μM), 6–7 (0–100 μM), and 8–12 (0-2,000 μM). Analogs 1, 6, and 7 were evaluated over a range of 0–4,000 μM in four batches of pooled human urine. The OD600 was monitored for 24 h (MOPS-glycerol) or 16 h (pooled urine) at 37°C with periodic shaking. […]

[2] = Stability in mouse liver homogenate; assay type: in vitro ADME; details: for remaining at 1 h, 10 µM: mouse, liver tissue homogenate (10% wt/vol), 10% wt/vol homogenate, 10 µM compound, 37°C; for stability in mouse liver homogenate: n = 3
Procedure: Stability studies were conducted in mouse liver microsomes, mouse liver tissue homogenate, and CD1 mouse plasma as previously described with minor modifications ([54][–][56]). Briefly, for Phase I mouse liver microsome stability, reactions were carried out with 200 mM potassium phosphate buffer, pH 7.4, with or without an NADPH-regenerating system (1.3 mM NADPH, 3.3 mM glucose 6-phosphate, 3.3 mM MgCl2, 0.4 U/mL glucose-6-phosphate dehydrogenase, and 50 µM sodium citrate). Reactions, in triplicate, were initiated by the addition of liver microsomes to the incubation mixture (compound final concentration was 1 µM; 0.2 mg/mL microsomes) and incubated at 37°C for the desired incubation time. For liver stability, the tissue homogenate was prepared by washing tissues with diluted 10-fold 0.1 M potassium phosphate buffer and homogenized using a probe sonicator over ice. To evaluate the stability of the drugs over time, each of the crude homogenates was aliquoted to 1 mL and then spiked with a final assay concentration of 10 µM of each drug, followed by incubation in an orbital shaker at 37°C for 1 h (in triplicate). For plasma stability, 1 mL of plasma was spiked with 10 µM of each drug, followed by incubation in an orbital shaker at 37°C for 1 h (in triplicate). Samples from each metabolism study were quenched with 3× volume of acetonitrile containing internal standard (losartan: 0.5 µM) at the desired incubation times. […] Samples were vortex-mixed for 30 s and centrifuged at 10,000 × g for 10 min at 4°C. Compound disappearance over time was monitored using a Dionex ultra-high-performance liquid chromatography system consisting of an analytical pump and an autosampler coupled with Q Exactive Focus orbitrap mass spectrometer (Thermo Fisher Scientific Inc., Waltham MA). […] The mobile phase used was composed of 0.1% formic acid in water and 0.1% formic acid in acetonitrile with gradient elution. The total run time for each analyte was 5 min.
The mass spectrometer was operated with a HESI ion source in positive ionization mode where compounds were identified in the full scan mode (from m/z 75.00–1125.00) and controlled by the Xcalibur software 4.0.27.13 (Thermo Scientific). Data were acquired using Xcalibur software. Drugs were identified in the full-scan mode (from m/z 75.00 to 1125.00) by comparing t = 0 samples with t = 30 or 60 min samples, and structures were proposed based on the accurate mass information. The percentage of compound remaining for pantothenamides 1, 6, and 7 was determined from the analyte/internal standard (IS) area ratios obtained at t = 30 or 60 min relative to the mean ratios obtained at t = 0 min and calculated using equation 1:
% Remaining=(Peak area of Analyte/Preak area of ISat t=30 or 60 min/MeanPeak area of Analyte/Peak area of ISat t=0 min)×100

[3] = Escherichia coli, UPEC CFT073, all urine batches A-D, read-out: MIC across four batches of pooled urine
[4] = Escherichia coli, UPEC CFT073, urine batch A, read-out: MIC in pooled human urine, urine batch A
[5] = Escherichia coli, UPEC CFT073, urine batch B, read-out: MIC in pooled human urine, urine batch B
[6] = Escherichia coli, UPEC CFT073, urine batch C, read-out: MIC in pooled human urine, urine batch C
[7] = Escherichia coli, UPEC CFT073, urine batch D, read-out: MIC in pooled human urine, urine batch D
[8] = UPEC CFT073, urine batch A, read-out: MIC in pooled human urine, urine batch A
[9] = UPEC CFT073, urine batch B, read-out: MIC in pooled human urine, urine batch B

CCCCCNC(=O)CCNC(=O)[C@H](O)C(C)(C)CO [compound 1, N-pentylpantothenamide, reference compound]
MIC [1, 3]: 250 to 1000 µM | MIC [1, 4]: 1000 µM | MIC [1, 5]: 250 µM | MIC [1, 6]: 1000 µM | MIC [1, 7]: 1000 µM | MIC [1, 8]: 1000 µM | MIC [1, 9]: 250 µM | remaining at 1 h, 10 µM [2]: 17% | stability in mouse liver homogenate [2]: unstable

CCCCCNC(=O)CNC(=O)[C@H](O)C(C)(C)CO [compound 6, N5-α-pantothenamide]
MIC [1, 3]: 250 to 1000 µM | MIC [1, 4]: 1000 µM | MIC [1, 5]: 250 µM | MIC [1, 6]: 500 µM | MIC [1, 7]: 500 µM | MIC [1, 8]: 1000 µM | MIC [1, 9]: 250 µM | fold higher MIC in urine than in MOPS-glycerol ([1]; urine MICs vs MIC in MOPS-glycerol): > 40 fold | remaining at 1 h, 10 µM [2]: 96% | stability in mouse liver homogenate [2]: good stability
